Assay results from ChEMBL document CHEMBL1158934, “Anthelmintic polyfunctional nitrogen-containing terpenoids from marine sponges” (J Nat Prod, 1991).
Active and inactive are the calls of the source. No cut-off for these calls is given here.

Assays:
Format in all cases: functional, organism-based
[1] = system: Nippostrongylus brasiliensis; experiment: Antimicrobial activity against Nippostrongylus brasiliensis
[2] = system: Trichophyton mentagrophytes; experiment: Antimicrobial activity against Trichophyton mentagrophytes
Candida albicans = experiment: Antimicrobial activity against Candida albicans
Staphylococcus aureus = experiment: Antimicrobial activity against Staphylococcus aureus

SMILES | Activity [1] | Activity [2] | Activity (Candida albicans) | Activity (Staphylococcus aureus)
[C-]#[N+][C@@H]1[C@H]2[C@H](CC[C@@]1(C)O)C(=C)CC[C@@H]2[C@@]1(C)CC[C@H](Cl)C(C)(C)O1 | inactive | – | – | –
CC1=C[C@H]2[C@@H](CC1)[C@@](C)(N=S)CC[C@H]2C(C)C | inactive | – | – | –
[C-]#[N+][C@@H]1[C@H]2[C@H](CC[C@@]1(C)O)[C@](C)(N=C=S)CC[C@@H]2[C@@]1(C)CC[C@H](Cl)C(C)(C)O1 | Active | Active | Active | Active
[C-]#[N+][C@@H]1[C@H](C(C)C)CC[C@@H](C)[C@@]12C=C(C)CC2 | inactive | Active | Active | Active
CC1=CC2=C(C(C)C)CC[C@](C)(N=C=S)[C@@H]2CC1 | inactive | – | – | –
CC1(C)O[C@@](C)([C@H]2CC[C@@](C)(N=C=S)[C@H]3CC[C@@](C)(O)[C@H](NC=O)[C@@H]32)CC[C@@H]1Cl | inactive | – | – | –
CC1=CC[C@@H](C(C)C)[C@H]2C[C@@](C)(N=C=S)CC[C@@H]12 (relative stereo) | inactive | – | – | –
